Patent US20090175852A1, “IMIDAZOPYRAZINES AS PROTEIN KINASE INHIBITORS” (Schering Corporation, priority 2006, published 2009)

Key:
[1] = target: Mk2 (Homo sapiens, UniProt P49137); experiment: Mk2 kinase inhibition (Table 4 activity data); type: biochemical
[2] = target: T1, CHK-1 (Homo sapiens, UniProt O14757); experiment: CHK-1 kinase inhibition (Table 4 activity data); type: biochemical
T1 sequence (O14757 1-476): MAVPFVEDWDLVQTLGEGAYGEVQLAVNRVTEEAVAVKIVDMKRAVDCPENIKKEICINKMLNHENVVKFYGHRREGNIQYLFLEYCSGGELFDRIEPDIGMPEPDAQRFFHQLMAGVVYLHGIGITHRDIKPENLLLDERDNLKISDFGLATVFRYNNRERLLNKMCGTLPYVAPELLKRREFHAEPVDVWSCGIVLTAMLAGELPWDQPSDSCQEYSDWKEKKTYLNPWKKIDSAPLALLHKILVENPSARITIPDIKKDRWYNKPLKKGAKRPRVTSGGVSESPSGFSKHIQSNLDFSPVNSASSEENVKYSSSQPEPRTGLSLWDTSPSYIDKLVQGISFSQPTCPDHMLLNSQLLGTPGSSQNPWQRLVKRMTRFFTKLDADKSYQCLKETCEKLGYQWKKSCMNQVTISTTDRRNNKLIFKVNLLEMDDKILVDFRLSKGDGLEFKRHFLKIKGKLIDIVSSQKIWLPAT

Sequence of Mk2 (P49137 whole entry, species assumed): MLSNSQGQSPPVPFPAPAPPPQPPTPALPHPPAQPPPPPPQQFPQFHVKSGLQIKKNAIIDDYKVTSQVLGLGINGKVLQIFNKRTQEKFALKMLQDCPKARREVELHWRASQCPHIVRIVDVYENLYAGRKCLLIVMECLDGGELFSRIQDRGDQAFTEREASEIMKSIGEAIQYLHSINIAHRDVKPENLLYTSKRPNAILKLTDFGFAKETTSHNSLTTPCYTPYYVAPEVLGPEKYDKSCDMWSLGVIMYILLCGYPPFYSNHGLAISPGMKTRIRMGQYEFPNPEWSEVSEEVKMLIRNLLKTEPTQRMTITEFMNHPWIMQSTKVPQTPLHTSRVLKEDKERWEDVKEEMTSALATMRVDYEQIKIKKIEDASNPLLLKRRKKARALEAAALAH

IC50 [1] [nM]	IC50 [2] [nM]	Compound
650	39	NC(=O)c1cnc(N[C@H]2CCCNC2)c2nc(-c3ccc(Cl)cc3)cn12 [Compound 5]
60	–	NC(=O)c1cnc(N[C@H]2CC[C@H](N)CC2)c2nc(-c3ccc(Cl)cc3)cn12 [Compound 12]
–	870	N#Cc1cccc(-c2cn3c(C#N)cnc(N[C@H]4CCCNC4)c3n2)c1 [Compound 44]
810	55	NC(=O)c1cccc(-c2cn3c(C(N)=O)cnc(N[C@H]4CCCNC4)c3n2)c1 [Compound 39]
